Biological target: T1, GST-hLGK1 (GK) (Homo sapiens, UniProt P35557)
T1 construct: GST (N); made in house
T1 sequence (P35557 1-464 isoform P35557-3): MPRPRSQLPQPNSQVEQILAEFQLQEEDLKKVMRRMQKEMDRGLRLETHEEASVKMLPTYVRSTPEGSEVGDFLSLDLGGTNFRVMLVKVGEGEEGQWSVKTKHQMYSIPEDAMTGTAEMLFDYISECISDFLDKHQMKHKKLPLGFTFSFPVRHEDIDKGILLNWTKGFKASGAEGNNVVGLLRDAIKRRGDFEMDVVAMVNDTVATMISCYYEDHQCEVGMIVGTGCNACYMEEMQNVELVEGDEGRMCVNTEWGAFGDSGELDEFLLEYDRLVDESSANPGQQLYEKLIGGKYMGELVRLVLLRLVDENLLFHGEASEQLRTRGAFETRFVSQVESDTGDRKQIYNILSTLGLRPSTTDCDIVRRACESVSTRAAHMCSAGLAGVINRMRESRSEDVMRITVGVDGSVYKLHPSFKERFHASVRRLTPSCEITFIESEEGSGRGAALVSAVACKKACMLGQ
Test: GK activation assay with GST-hLGK1 and Mant-ATP, capillary electrophoresis readout
Format: biochemical
Settings: GST-hLGK1 6 μg/mL, 50 μM Mant-ATP, 25 mM D-glucose solution (10 μL) added, 37° C. for 60 min; concentration for 50% of the maximum activity value; read-out: EC50 of Exemplified Compounds against GK
Protocol: A 50% solution (5 μL) of the test compound in dimethyl sulfoxide was added to each well of a 384 well black plate (Nalge Nunc). Then, 35 μL of a liquid obtained by diluting GST-hLGK1 obtained in Reference Example 2A with a measurement buffer (50 mM HEPES (pH 7.4), containing 200 mM KCl, 5 mM MgCl2, 2.5 mM DTT and 50 μM 2′-(or-3′)—O—(N-methylanthraniloyl)adenosine 5′-triphosphate (Mant-ATP) (Jena Bioscience)) was added to each well to 6 μg/mL. Each well was maintained at 37° C. for 10 min, and a 25 mM D-glucose solution (10 μL) was added to start the reaction. After the start of the reaction, each well was allowed to stand at 37° C. for 60 min, before quenching the reaction by adding 25 μL of a reaction quenching solution (200 mM HEPES (pH 7.4), containing 20 mM MgCl2, 200 mM EDTA, 0.03% Triton-X 100, 0.3% Coating 3 reagent (Caliper Life Sciences)).
Mant-ATP (substrate) and Mant-ADP (reaction resultant product) were separated from each well after quenching the reaction, with a microchip type capillary electrophoresis apparatus 250HTS (Caliper Life Sciences). The reaction rate [(peak height of reaction resultant product)/(peak height of reaction resultant product+peak height of substrate)×100(%)] was calculated from the ratio of the substrate peak height and the reaction resultant product peak height, which were obtained by fluorescence detection (excitation wavelength 355 nm, measurement wavelength 460 nm), and used as an index of the GK activity.
For the control, the reaction rate was calculated in the same manner as above, except that a “50% dimethyl sulfoxide solution” was used instead of the “50% solution of the test compound in dimethyl sulfoxide”.
A percentage obtained by dividing the reaction rate of the well with the test compound (test compound addition group) by the reaction rate of the well with a 50% dimethyl sulfoxide solution alone (control group) was taken as the GK activation value by the test compound, and the concentration of the test compound necessary for the activation of 50% of the maximum activity value determined as an EC50 value.

**Q.** With `Brc1ccc2[nH]nc(Nc3nccs3)c2c1` [Compound 7, 5-Bromo-N-1,3-thiazol-2-yl-1H-indazol-3-amine] as the compound, how does the EC50 read?
**A.** Its EC50 is 5000 nM.

**Q.** Which EC50 does the source give for `Cn1nc(Nc2nccs2)c2cc(C(F)(F)F)ccc21` [Compound 9, 1-Methyl-N-1,3-thiazol-2-yl-5-(trifluoromethyl)-1H-indazol-3-amine] here?
**A.** The EC50 was 2500 nM.

**Q.** Which EC50 does the source give for `O=[N+]([O-])c1ccc2[nH]nc(Nc3nccs3)c2c1` [Compound 20, 5-Nitro-N-1,3-thiazol-2-yl-1H-indazol-3-amine] here?
**A.** Its EC50 is 6600 nM.

**Q.** How did the EC50 turn out when `CC(=O)Nc1ccc2[nH]nc(Nc3nccs3)c2c1` [Compound 22, N-[3-(1,3-Thiazol-2-ylamino)-1H-indazol-5-yl]acetamide] was run?
**A.** The EC50 was 15000 nM.

**Q.** `CC(=O)c1ccc2[nH]nc(Nc3nccs3)c2c1` [Compound 25, 1-[3-(1,3-Thiazol-2-ylamino)-1H-indazol-5-yl]ethanone] was tested. Which EC50 did it give?
**A.** The EC50 was 8600 nM.

**Q.** `CC(C)Cc1ccc2[nH]nc(Nc3nccs3)c2c1` [Compound 29, 5-Isobutyl-N-1,3-thiazol-2-yl-1H-indazol-3-amine] was tested. Which EC50 did it give?
**A.** Its EC50 is 1200 nM.

**Q.** Which EC50 does the source give for `CC(C)c1ccc2[nH]nc(Nc3nccs3)c2c1` [Compound 33, 5-Isopropyl-N-1,3-thiazol-2-yl-1H-indazol-3-amine] here?
**A.** Its EC50 is 2900 nM.

**Q.** Which EC50 does the source give for `CC(C)Oc1ccc2[nH]nc(Nc3nccs3)c2c1` [Compound 34, 5-Isopropoxy-N-1,3-thiazol-2-yl-1H-indazol-3-amine] here?
**A.** The EC50 was 1700 nM.

**Q.** `COCC(C)Oc1ccc2[nH]nc(Nc3nccs3)c2c1` (stereo not drawn) [Compound 35, 5-(2-Methoxy-1-methylethoxy)-N-1,3-thiazol-2-yl-1H-indazol-3-amine] was tested. Which EC50 did it give?
**A.** Its EC50 is 2400 nM.
